The results in this text go back to ChEMBL document CHEMBL1150014, “DISCOVERY OF A NOVEL CLASS OF BK CHANNEL OPENERS: ENANTIOSPECIFIC SYNTHESIS AND BK CHANNEL OPENING ACTIVITY OF 3-(5-CHLORO-2-HYDROXYPHENYL)-1,3-DIHYDRO-3-HYDROXY-6-(TRIFLUOROMETHYL)-2H-INDOL-2-ONE” (Bioorg Med Chem Lett, 1997).

What all share (assay type): functional
Experiment [1] concerns the target Calcium-activated potassium channel subunit alpha-1 (Mus musculus) (UniProt Q08460). Description: Effect on outward K+ current using two-electrode voltage clamp recording from Xenopus laevis oocyte expressing cloned mSlo at 20 uM.
The target is the same in experiment [2]. Description: Effect on outward K+ current using two-electrode voltage clamp recording from Xenopus laevis oocyte expressing cloned mSlo at 30 uM. Background: Two-electrode voltage clamp holds a large cell at a set potential and records current.
In experiment [3] the target is Calcium-activated potassium channel subunit alpha-1 (Homo sapiens) (UniProt Q12791). Description: Effect on outward K+ current using two-electrode voltage clamp recording from Xenopus laevis oocyte expressing cloned hSlo at 20 uM.
Calcium-activated potassium channel subunit alpha-1 (Homo sapiens), sequence (Q12791 whole entry): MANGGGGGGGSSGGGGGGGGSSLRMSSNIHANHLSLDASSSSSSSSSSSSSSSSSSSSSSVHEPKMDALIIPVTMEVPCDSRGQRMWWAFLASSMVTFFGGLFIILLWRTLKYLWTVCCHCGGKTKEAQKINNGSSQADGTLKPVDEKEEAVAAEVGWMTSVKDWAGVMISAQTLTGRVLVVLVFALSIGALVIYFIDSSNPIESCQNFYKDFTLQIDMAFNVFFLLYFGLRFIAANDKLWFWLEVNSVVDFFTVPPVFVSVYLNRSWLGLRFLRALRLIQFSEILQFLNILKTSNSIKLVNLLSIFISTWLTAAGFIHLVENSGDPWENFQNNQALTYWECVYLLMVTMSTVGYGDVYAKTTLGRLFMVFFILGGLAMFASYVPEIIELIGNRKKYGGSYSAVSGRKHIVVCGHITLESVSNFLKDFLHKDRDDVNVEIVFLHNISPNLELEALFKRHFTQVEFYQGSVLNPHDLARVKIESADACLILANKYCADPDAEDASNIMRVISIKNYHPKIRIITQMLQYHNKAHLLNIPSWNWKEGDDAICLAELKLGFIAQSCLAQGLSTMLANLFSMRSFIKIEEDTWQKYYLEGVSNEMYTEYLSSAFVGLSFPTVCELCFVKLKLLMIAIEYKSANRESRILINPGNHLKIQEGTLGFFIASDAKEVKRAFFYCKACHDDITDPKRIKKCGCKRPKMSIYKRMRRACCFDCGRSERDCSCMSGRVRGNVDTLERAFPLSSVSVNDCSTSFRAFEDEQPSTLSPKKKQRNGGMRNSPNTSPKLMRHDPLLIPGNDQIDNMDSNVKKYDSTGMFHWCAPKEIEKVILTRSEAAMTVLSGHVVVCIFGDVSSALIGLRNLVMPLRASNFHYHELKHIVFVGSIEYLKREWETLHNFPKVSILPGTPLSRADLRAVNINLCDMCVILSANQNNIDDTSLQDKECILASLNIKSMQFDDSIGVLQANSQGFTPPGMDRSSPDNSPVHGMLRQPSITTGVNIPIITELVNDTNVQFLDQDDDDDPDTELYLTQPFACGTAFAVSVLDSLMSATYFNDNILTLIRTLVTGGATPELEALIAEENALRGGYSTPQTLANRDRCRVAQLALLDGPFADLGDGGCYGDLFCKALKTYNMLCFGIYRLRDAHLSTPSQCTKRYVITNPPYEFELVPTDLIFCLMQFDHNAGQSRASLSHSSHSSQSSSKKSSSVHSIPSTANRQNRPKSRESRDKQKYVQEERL

Calcium-activated potassium channel subunit alpha-1 (Mus musculus), sequence (Q08460 whole entry): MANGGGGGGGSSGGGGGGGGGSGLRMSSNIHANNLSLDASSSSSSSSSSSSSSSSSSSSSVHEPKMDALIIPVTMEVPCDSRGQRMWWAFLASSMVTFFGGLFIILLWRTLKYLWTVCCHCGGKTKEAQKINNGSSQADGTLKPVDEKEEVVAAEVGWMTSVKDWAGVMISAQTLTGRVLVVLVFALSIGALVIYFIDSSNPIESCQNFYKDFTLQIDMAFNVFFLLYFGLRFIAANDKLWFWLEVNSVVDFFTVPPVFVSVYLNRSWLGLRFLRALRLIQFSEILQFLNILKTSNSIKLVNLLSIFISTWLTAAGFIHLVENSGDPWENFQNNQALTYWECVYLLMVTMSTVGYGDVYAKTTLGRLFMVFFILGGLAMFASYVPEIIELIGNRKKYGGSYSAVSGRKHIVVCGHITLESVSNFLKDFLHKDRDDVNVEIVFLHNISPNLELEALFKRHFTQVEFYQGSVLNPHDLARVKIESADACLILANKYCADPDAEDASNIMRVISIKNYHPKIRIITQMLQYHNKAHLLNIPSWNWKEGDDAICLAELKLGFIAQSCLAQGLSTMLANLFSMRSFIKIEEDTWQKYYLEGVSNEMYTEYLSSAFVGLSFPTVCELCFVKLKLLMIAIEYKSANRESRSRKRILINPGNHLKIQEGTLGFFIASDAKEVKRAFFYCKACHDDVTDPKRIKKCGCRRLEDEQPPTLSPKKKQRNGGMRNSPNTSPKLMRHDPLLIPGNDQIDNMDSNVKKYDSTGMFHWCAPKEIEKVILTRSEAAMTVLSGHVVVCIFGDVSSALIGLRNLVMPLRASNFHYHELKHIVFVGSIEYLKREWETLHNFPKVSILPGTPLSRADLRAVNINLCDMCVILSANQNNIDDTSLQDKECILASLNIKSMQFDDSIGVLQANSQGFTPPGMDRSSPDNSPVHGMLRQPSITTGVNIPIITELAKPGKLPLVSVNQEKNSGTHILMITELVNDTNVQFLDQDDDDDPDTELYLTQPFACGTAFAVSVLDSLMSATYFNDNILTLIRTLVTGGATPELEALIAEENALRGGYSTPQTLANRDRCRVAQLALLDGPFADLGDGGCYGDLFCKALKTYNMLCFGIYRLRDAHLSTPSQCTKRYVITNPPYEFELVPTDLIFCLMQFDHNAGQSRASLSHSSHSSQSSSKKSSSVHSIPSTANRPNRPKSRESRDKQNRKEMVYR

As to `O=c1[nH]c2cc(C(F)(F)F)ccc2n1-c1cc(Cl)ccc1O`, the figures for the Control in experiment [1] and in experiment [2] were 132% and 148%, respectively.

Turning to `COc1ccc(Cl)cc1C1(O)C(=O)Nc2cc(C(F)(F)F)ccc21` (racemic), the Control in experiment [3] came out at 120%.

For `O=C1Nc2cc(C(F)(F)F)ccc2C1(O)c1cc(Cl)ccc1O` (racemic), the Control was determined as 131% in experiment [1] and 201% in experiment [2].

For the compound `O=C1Nc2cc(C(F)(F)F)ccc2C1(O)c1cccc(Cl)c1` (racemic), the Control in experiment [3] came to 96.7%.

For `O=C1Nc2cc(C(F)(F)F)ccc2C1(O)c1ccccc1O` (racemic), the Control in experiment [1] came out at 90.4%.

As to `O=C1Nc2ccccc2C1(O)c1cc(Cl)ccc1O` (racemic), in experiment [1], the Control was determined as 95.3%.

`COc1ccc(Cl)cc1[C@]1(O)C(=O)Nc2cc(C(F)(F)F)ccc21` (stereo in doubt; (+)-4c): the Control in experiment [3] is 117%.

Turning to `O=C1Nc2cc(C(F)(F)F)ccc2[C@@]1(O)c1cc(Cl)ccc1O` (stereo in doubt; (+)-4e), in experiment [1], the Control amounted to 124%.

For the compound `COc1ccc(Cl)cc1[C@]1(O)C(=O)Nc2cc(C(F)(F)F)ccc21` (stereo in doubt; (-)-4c), the Control in experiment [3] was determined as 116%.

As to `O=C1Nc2cc(C(F)(F)F)ccc2[C@@]1(O)c1cc(Cl)ccc1O` (stereo in doubt; (-)-4e), the Control in experiment [1] stood at 141%.
